Tests used:
Panc-1 cells = assay: Cell viability with gemcitabine, CellTiter-Glo 2.0, Panc-1 cells; format: cell-based, Human; conditions: naïve (unedited) Panc-1 cells, 72 hours
Method: Wildtype and transfected Panc-1 cells were plated to 24 well plates (n=5) at 50,000 cells per well and placed in incubator for 24 hours. The cells were then treated with either Gemcitabine (Selleckchem, Cat. S1714) or DMSO (Thermo Fisher, Cat. D12345). Cells treated with Gemcitabine were treated at one of the following concentrations: 0 μM, 2.5 μM, 5 μM, 25 μM while cells treated with DMSO were treated at: 0%, 0.025%, 0.05%, or 0.25%. Cells remained in Gemcitabine or DMSO for 72 hours before being evaluated using CellTiter-Glo 2.0 Cell Viability Assay (Promega, Cat. G9241).
Since our long-term objective is to develop an effective genetic treatment that would augment standard care, we decided to examine the possibility that we could restore sensitivity to gemcitabine by genetic editing of NRF2 in gemcitabine resistant Panc1 cells. We are using gemcitabine as a selection system to determine if gene editing at some level, can help restore tumor cell killing. We established the kill curve of Panc1 unedited cells by gemcitabine under our standard reaction conditions to serve as a baseline. […] Again, after 72 hours, each cell population was exposed to gemcitabine for an additional 72 hours and thereafter cell viability of the treated and untreated cells was measured using the Cell Titer 2.0 viability assay (Promega, Madison, WI, USA). […]

NRF2 = NRF2 western blot in Panc-1 cells; format: cell-based, Human; conditions: edited Panc-1 populations vs unedited, GAPDH loading control
Method: Panc-1 cell pellets were collected using a standard RIPA lysis buffer containing protease inhibitor cocktail. Total protein concentration of collected cells was then determined using BCA Protein Assay kit (Pierce, Rockford, IL, USA). The samples were boiled at 95° C. for 10 minutes and then underwent SDS-PAGE on a 10% Mini-PROTEAN TGX Stain-free Protein Gel (BioRad, Cat. 4568033) for 90 min at 100 V. The gel was then transferred to a nitrocellulose membrane using Trans-Blot Turbo Transfer Systems (BioRad, Hercules, CA, USA) with Trans-Blot Turbo RTA Mini 0.2 μm Nitrocellulose Transfer Kit (BioRad Cat. 1704158), mixed molecular weight program, 10 minutes. The blot was placed in 5% milk and blocked at room temperature on shaker for 2 hours. Incubation in primary NRF2 antibody was done overnight at 4° C. on shaker (1:1,000, Abcam ab62352). Membrane was then incubated at room temperature on shaker for 1 hour in NRF2 secondary (1:10,000, Abcam ab205718). The SuperSignal West Dura Extended Duration ECL (Pierce) kit was used on the LI-COR Odyssey FC to visualize bands. […]

Compound: Nc1ccn([C@@H]2O[C@H](CO)[C@@H](O)C2(F)F)c(=O)n1 [gemcitabine, reference compound]
- concentration of drug to achieve 75% killing (Panc-1 cells): ~100 µM

Compound: sg5: gRNA targeting exon 3 of NRF2; CCTCATTGTCATCTACAAAC GGG (guide CCTCATTGTCATCTACAAACGGG; listed as DNA, chemistry not given here)
- NRF2 protein knock down (NRF2): significant knockdown of protein
